Results on four compounds are retold here after US12622914B2, “Pharmaceutical rectal suppository compositions of 6-thioguanine, methods of treatment and/or methods of manufacturing” (Douglas Pharmaceuticals Ltd., priority 2023, dated 2026).

Series [1] can be described thus: Particle size distribution (Malvern Mastersizer 3000). The format is physicochemical. Conditions: dispersed in n-heptane containing 0.1% span 80 pre-saturated with 6-thioguanine. How it is done: The particles size distribution of the API alone and in the rectal suppository formulations was measured using a Malvern Mastersizer 3000 (Hydro SM). The samples were dispersed in n-heptane containing 0.1% span 80 pre-saturated with 6-thioguanine (to reduce any dissolution of the 6-thioguanine particles in the samples).

The subject of another series is induced colitis. As to conditions: mice lacking the enzyme HPRT, treatment with 6-thioguanine; cited from earlier work.

For the compound `Nc1nc(=S)c2[nH]cnc2[nH]1` [Sample C, 6-thioguanine], in series [1], the D10 was 2.9 μm, the D50 worked out at 9.0 μm and the D90 stood at 151.0 μm. Moreover, in series [1] (listed as Batch C), the D10 is listed as 2.9 μm, the D50 was found to be 9.0 μm and the D90 was determined as 151.0 μm.

As to `Nc1nc(=S)c2[nH]cnc2[nH]1` [Sample A, 6-thioguanine], in series [1], the D10 was 5.4 μm, the D50 is 66.8 μm and the D90 came out at 261.0 μm.

On to `Nc1nc(=S)c2[nH]cnc2[nH]1` [B, 6-thioguanine], for which, in series [1], the D10 came to 5.3 μm, the D50 was 69.1 μm and the D90 is recorded as 267.0 μm.

In the case of `Nc1nc(=S)c2[nH]cnc2[nH]1` [6-thioguanine, 2-amino-1H-purine-6(7H)-thione], the “reduction in induced colitis” value in the series with induced colitis was “rapid and appreciable reduction in induced colitis”.
